Laboratory results reported in ChEMBL document CHEMBL1909046, “DrugMatrix in vitro pharmacology data”.

Tested on: not listed separately
Experiment: DRUGMATRIX: Phosphodiesterase PDE3 enzyme inhibition (substrate: [3H]cAMP + cAMP)
Format: tissue-based, Homo sapiens
Settings: platelet; Not Active = under 50% inhibition at 10 µM

Structure (SMILES) | IC50 | Ki
C=CCC1(C(C)CCC)C(=O)NC(=O)NC1=O (centres undefined) [SECOBARBITAL] | Not Active | Not Active
Nc1c2c(nc3ccccc13)CCCC2 [TACRINE] | Not Active | Not Active
N[C@@H]1[C@H]2CN(c3nc4c(cc3F)c(=O)c(C(=O)O)cn4-c3ccc(F)cc3F)C[C@@H]12 [TROVAFLOXACIN] | Not Active | Not Active
CC1(C)O[C@@H]2C[C@H]3[C@@H]4CCC5=CC(=O)C=C[C@]5(C)[C@@]4(F)[C@@H](O)C[C@]3(C)[C@]2(C(=O)CO)O1 [TRIAMCINOLONE ACETONIDE] | Not Active | Not Active
NC[C@H]1CC[C@H](C(=O)O)CC1 [TRANEXAMIC ACID] | Not Active | Not Active
COc1c(C)c2c(c(O)c1C/C=C(\C)CCC(=O)O)C(=O)OC2 [MYCOPHENOLIC ACID] | Not Active | Not Active
N[C@@H](Cc1ccc(N(CCCl)CCCl)cc1)C(=O)O | Not Active | Not Active

Target: Protein kinase C alpha type (Homo sapiens, UniProt P17252);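 further: inhibition of PKCalpha kinase activity measured in an enzyme assay with histone as the phosphorylation substrate; in other assays of this panel Not Active means under 50% inhibition at 10 µM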
Format: cell-based
Settings: sf9

Structure (SMILES) | IC50
C=CCC1(C(C)CCC)C(=O)NC(=O)NC1=O (centres undefined) [SECOBARBITAL] | Not Active
Nc1c2c(nc3ccccc13)CCCC2 [TACRINE] | Not Active
N[C@@H]1[C@H]2CN(c3nc4c(cc3F)c(=O)c(C(=O)O)cn4-c3ccc(F)cc3F)C[C@@H]12 [TROVAFLOXACIN] | Not Active
CC1(C)O[C@@H]2C[C@H]3[C@@H]4CCC5=CC(=O)C=C[C@]5(C)[C@@]4(F)[C@@H](O)C[C@]3(C)[C@]2(C(=O)CO)O1 [TRIAMCINOLONE ACETONIDE] | Not Active
NC[C@H]1CC[C@H](C(=O)O)CC1 [TRANEXAMIC ACID] | Not Active
COc1c(C)c2c(c(O)c1C/C=C(\C)CCC(=O)O)C(=O)OC2 [MYCOPHENOLIC ACID] | Not Active
N[C@@H](Cc1ccc(N(CCCl)CCCl)cc1)C(=O)O | Not Active

Target: T1, Caspase-1 (Homo sapiens, UniProt P29466);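 further: Caspase-1 enzyme inhibition assay with a peptide substrate; in other assays of this panel Not Active means under 50% inhibition at 10 µM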
T1 sequence (P29466 whole entry): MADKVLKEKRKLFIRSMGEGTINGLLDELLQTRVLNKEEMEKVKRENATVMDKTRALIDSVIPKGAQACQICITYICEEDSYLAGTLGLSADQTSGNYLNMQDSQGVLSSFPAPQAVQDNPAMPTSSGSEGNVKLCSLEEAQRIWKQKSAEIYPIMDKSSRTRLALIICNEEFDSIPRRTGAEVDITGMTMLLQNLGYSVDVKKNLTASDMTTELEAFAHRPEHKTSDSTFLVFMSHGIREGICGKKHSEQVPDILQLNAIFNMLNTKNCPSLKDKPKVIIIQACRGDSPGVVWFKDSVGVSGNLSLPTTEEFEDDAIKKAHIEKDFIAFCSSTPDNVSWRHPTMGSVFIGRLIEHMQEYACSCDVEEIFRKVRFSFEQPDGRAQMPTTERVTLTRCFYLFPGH
Design: species or system Escherichia coli
Settings: not given

Structure (SMILES) | IC50
C=CCC1(C(C)CCC)C(=O)NC(=O)NC1=O (centres undefined) [SECOBARBITAL] | Not Active
Nc1c2c(nc3ccccc13)CCCC2 [TACRINE] | Not Active
N[C@@H]1[C@H]2CN(c3nc4c(cc3F)c(=O)c(C(=O)O)cn4-c3ccc(F)cc3F)C[C@@H]12 [TROVAFLOXACIN] | Not Active
CC1(C)O[C@@H]2C[C@H]3[C@@H]4CCC5=CC(=O)C=C[C@]5(C)[C@@]4(F)[C@@H](O)C[C@]3(C)[C@]2(C(=O)CO)O1 [TRIAMCINOLONE ACETONIDE] | Not Active
NC[C@H]1CC[C@H](C(=O)O)CC1 [TRANEXAMIC ACID] | Not Active
COc1c(C)c2c(c(O)c1C/C=C(\C)CCC(=O)O)C(=O)OC2 [MYCOPHENOLIC ACID] | Not Active
N[C@@H](Cc1ccc(N(CCCl)CCCl)cc1)C(=O)O | Not Active

Tested on: not listed separately
Experiment: DRUGMATRIX: Potassium Channel [KATP] radioligand binding (ligand: [3H] Glyburide)
Format: cell membranes, Membrane
Settings: hit-t15; Not Active = under 50% inhibition at 10 µM

Structure (SMILES) | IC50 | Ki
C=CCC1(C(C)CCC)C(=O)NC(=O)NC1=O (centres undefined) [SECOBARBITAL] | Not Active | Not Active
Nc1c2c(nc3ccccc13)CCCC2 [TACRINE] | Not Active | Not Active
N[C@@H]1[C@H]2CN(c3nc4c(cc3F)c(=O)c(C(=O)O)cn4-c3ccc(F)cc3F)C[C@@H]12 [TROVAFLOXACIN] | Not Active | Not Active
CC1(C)O[C@@H]2C[C@H]3[C@@H]4CCC5=CC(=O)C=C[C@]5(C)[C@@]4(F)[C@@H](O)C[C@]3(C)[C@]2(C(=O)CO)O1 [TRIAMCINOLONE ACETONIDE] | Not Active | Not Active
NC[C@H]1CC[C@H](C(=O)O)CC1 [TRANEXAMIC ACID] | Not Active | Not Active
COc1c(C)c2c(c(O)c1C/C=C(\C)CCC(=O)O)C(=O)OC2 [MYCOPHENOLIC ACID] | Not Active | Not Active
N[C@@H](Cc1ccc(N(CCCl)CCCl)cc1)C(=O)O | Not Active | Not Active

Target: T2, Neuropeptide Y receptor type 2 (Homo sapiens, UniProt P49146); further: in other assays of this panel Not Active means under 50% inhibition at 10 µM
T2 sequence (P49146 whole entry): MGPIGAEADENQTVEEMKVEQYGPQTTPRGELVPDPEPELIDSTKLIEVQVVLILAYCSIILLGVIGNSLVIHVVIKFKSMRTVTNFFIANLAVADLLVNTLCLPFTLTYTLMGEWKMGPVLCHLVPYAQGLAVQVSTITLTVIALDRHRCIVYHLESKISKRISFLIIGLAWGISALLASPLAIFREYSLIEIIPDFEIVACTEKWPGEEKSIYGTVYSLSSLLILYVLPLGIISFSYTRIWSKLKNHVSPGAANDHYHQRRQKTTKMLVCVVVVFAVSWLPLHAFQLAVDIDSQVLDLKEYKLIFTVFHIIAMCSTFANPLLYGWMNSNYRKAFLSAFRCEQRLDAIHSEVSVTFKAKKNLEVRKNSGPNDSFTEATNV
Format: cell membranes, Membrane
Settings: kan-ts

Structure (SMILES) | IC50
C=CCC1(C(C)CCC)C(=O)NC(=O)NC1=O (centres undefined) [SECOBARBITAL] | Not Active
Nc1c2c(nc3ccccc13)CCCC2 [TACRINE] | Not Active
N[C@@H]1[C@H]2CN(c3nc4c(cc3F)c(=O)c(C(=O)O)cn4-c3ccc(F)cc3F)C[C@@H]12 [TROVAFLOXACIN] | Not Active
CC1(C)O[C@@H]2C[C@H]3[C@@H]4CCC5=CC(=O)C=C[C@]5(C)[C@@]4(F)[C@@H](O)C[C@]3(C)[C@]2(C(=O)CO)O1 [TRIAMCINOLONE ACETONIDE] | Not Active
NC[C@H]1CC[C@H](C(=O)O)CC1 [TRANEXAMIC ACID] | Not Active
COc1c(C)c2c(c(O)c1C/C=C(\C)CCC(=O)O)C(=O)OC2 [MYCOPHENOLIC ACID] | Not Active
N[C@@H](Cc1ccc(N(CCCl)CCCl)cc1)C(=O)O | Not Active

Tested on: not listed separately
Experiment: DRUGMATRIX: Calcium Channel Type L, Phenylalkylamine radioligand binding (ligand: [3H] (-)-Desmethoxyverapamil (D-888))
Format: cell membranes, Rattus norvegicus, Wistar, Brain, Membrane
Settings: Not Active = under 50% inhibition at 10 µM

Structure (SMILES) | IC50 | Ki
C=CCC1(C(C)CCC)C(=O)NC(=O)NC1=O (centres undefined) [SECOBARBITAL] | Not Active | Not Active
Nc1c2c(nc3ccccc13)CCCC2 [TACRINE] | Not Active | Not Active
N[C@@H]1[C@H]2CN(c3nc4c(cc3F)c(=O)c(C(=O)O)cn4-c3ccc(F)cc3F)C[C@@H]12 [TROVAFLOXACIN] | Not Active | Not Active
CC1(C)O[C@@H]2C[C@H]3[C@@H]4CCC5=CC(=O)C=C[C@]5(C)[C@@]4(F)[C@@H](O)C[C@]3(C)[C@]2(C(=O)CO)O1 [TRIAMCINOLONE ACETONIDE] | Not Active | Not Active
NC[C@H]1CC[C@H](C(=O)O)CC1 [TRANEXAMIC ACID] | Not Active | Not Active
COc1c(C)c2c(c(O)c1C/C=C(\C)CCC(=O)O)C(=O)OC2 [MYCOPHENOLIC ACID] | Not Active | Not Active
N[C@@H](Cc1ccc(N(CCCl)CCCl)cc1)C(=O)O | Not Active | Not Active

Target: Cytochrome P450 3A4 (Homo sapiens, UniProt P08684); further: in other assays of this panel Not Active means under 50% inhibition at 10 µM
Sequence (P08684 whole entry): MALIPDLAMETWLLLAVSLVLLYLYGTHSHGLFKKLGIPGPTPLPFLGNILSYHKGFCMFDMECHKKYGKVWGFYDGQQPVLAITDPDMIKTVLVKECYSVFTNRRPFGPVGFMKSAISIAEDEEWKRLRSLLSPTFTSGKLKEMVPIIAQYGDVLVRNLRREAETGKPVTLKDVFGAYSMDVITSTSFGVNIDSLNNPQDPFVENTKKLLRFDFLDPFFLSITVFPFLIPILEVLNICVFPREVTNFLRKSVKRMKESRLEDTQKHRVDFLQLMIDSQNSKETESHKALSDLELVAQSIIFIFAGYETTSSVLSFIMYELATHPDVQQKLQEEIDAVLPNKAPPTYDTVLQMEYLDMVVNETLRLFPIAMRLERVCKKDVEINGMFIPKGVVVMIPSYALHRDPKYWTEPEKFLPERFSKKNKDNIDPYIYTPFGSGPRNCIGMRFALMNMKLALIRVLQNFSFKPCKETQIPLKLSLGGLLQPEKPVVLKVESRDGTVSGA
Settings: bti-tn-5b1-4

Structure (SMILES) | IC50 | Ki
C=CCC1(C(C)CCC)C(=O)NC(=O)NC1=O (centres undefined) [SECOBARBITAL] | Not Active | Not Active
Nc1c2c(nc3ccccc13)CCCC2 [TACRINE] | Not Active | Not Active
N[C@@H]1[C@H]2CN(c3nc4c(cc3F)c(=O)c(C(=O)O)cn4-c3ccc(F)cc3F)C[C@@H]12 [TROVAFLOXACIN] | Not Active | Not Active
CC1(C)O[C@@H]2C[C@H]3[C@@H]4CCC5=CC(=O)C=C[C@]5(C)[C@@]4(F)[C@@H](O)C[C@]3(C)[C@]2(C(=O)CO)O1 [TRIAMCINOLONE ACETONIDE] | Not Active | Not Active
NC[C@H]1CC[C@H](C(=O)O)CC1 [TRANEXAMIC ACID] | Not Active | Not Active
COc1c(C)c2c(c(O)c1C/C=C(\C)CCC(=O)O)C(=O)OC2 [MYCOPHENOLIC ACID] | Not Active | Not Active
N[C@@H](Cc1ccc(N(CCCl)CCCl)cc1)C(=O)O | Not Active | Not Active

Target: C-C chemokine receptor type 5 (Homo sapiens, UniProt P51681); further: in other assays of this panel Not Active means under 50% inhibition at 10 µM
Sequence (P51681 whole entry): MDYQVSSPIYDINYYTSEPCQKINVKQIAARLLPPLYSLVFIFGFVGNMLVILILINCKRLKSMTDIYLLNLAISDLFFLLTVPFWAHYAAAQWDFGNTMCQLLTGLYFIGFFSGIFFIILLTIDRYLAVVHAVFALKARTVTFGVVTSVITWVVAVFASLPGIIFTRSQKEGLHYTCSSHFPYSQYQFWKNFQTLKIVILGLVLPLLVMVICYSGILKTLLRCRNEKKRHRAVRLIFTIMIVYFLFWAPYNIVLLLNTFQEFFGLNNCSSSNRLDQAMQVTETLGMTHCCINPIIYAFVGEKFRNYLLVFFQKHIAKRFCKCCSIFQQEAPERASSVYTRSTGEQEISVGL
Format: cell membranes, Membrane
Settings: hek293

Structure (SMILES) | IC50
C=CCC1(C(C)CCC)C(=O)NC(=O)NC1=O (centres undefined) [SECOBARBITAL] | Not Active
Nc1c2c(nc3ccccc13)CCCC2 [TACRINE] | Not Active
N[C@@H]1[C@H]2CN(c3nc4c(cc3F)c(=O)c(C(=O)O)cn4-c3ccc(F)cc3F)C[C@@H]12 [TROVAFLOXACIN] | Not Active
CC1(C)O[C@@H]2C[C@H]3[C@@H]4CCC5=CC(=O)C=C[C@]5(C)[C@@]4(F)[C@@H](O)C[C@]3(C)[C@]2(C(=O)CO)O1 [TRIAMCINOLONE ACETONIDE] | Not Active
NC[C@H]1CC[C@H](C(=O)O)CC1 [TRANEXAMIC ACID] | Not Active
COc1c(C)c2c(c(O)c1C/C=C(\C)CCC(=O)O)C(=O)OC2 [MYCOPHENOLIC ACID] | Not Active
N[C@@H](Cc1ccc(N(CCCl)CCCl)cc1)C(=O)O | Not Active
